Consider four compounds from publication PMC3506555, “[^11C]phenytoin revisited: synthesis by [^11C]CO carbonylation and first evaluation as a P-gp tracer in rats” (EJNMMI Research, 2012).

The test system of one series is P-gp. Also on record: method as in PMID 14642487, PMID 16857389, PMID 15961982, PMID 18783208, PMID 19647170. The conditions noted are these: rat and human brain; cited from earlier work.
A short description of series [1]: Observation of animals after probenecid administration. The series is classed as in vivo. Particulars: probenecid 150 mg·kg^−1 i.v., during 30 to 40 min after administration.

Molecules are shown by their SMILES.

As for `[11CH3]NC(=O)C(CCN1CCC(O)(c2ccc(Cl)cc2)CC1)(c1ccccc1)c1ccccc1` [^11C]desmethyl loperamide], in the series on P-gp, the “Brain-to-plasma equilibrium concentration ratio (VT) at baseline” value is recorded as “about 1”.
On to `COc1cc2c(cc1OC)CN(CCc1ccc(NC(=O)c3cc(O[11CH3])c(OC)cc3NC(=O)c3cnc4ccccc4c3)cc1)CC2` [^11C]tariquidar], for which, in the series with P-gp, the “Brain-to-plasma equilibrium concentration ratio (VT) at baseline” value is on record as “about 1”.
For `CCCN(CCC)S(=O)(=O)c1ccc(C(=O)O)cc1` [probenecid], in series [1], the “Breathing frequency after administration” value is on record as “severely depressed breathing frequency”.
On to `COC(=O)c1cnc2n1CCc1ccccc1C2=C1CCN(CCc2ccc(OCc3ccc4ccccc4n3)cc2)CC1` [^11C]laniquidar], for which, in the series on P-gp, the “Brain-to-plasma equilibrium concentration ratio (VT) at baseline” value is given as “about 1”.
